Several values for one entry are separate records, joined by “and”; a condition that tells them apart may be missing. Equal entries are not always repeated.
Key:
w836 DNA (146 bp) = experiment: DNA alkylation selectivity and efficiency, thermally-induced strand cleavage of w836 DNA; type: biochemical
Protocol: FIG. 6 illustsrates thermally-induced strand cleavage of w836 DNA (146 bp, nucleotide nos. 5189-91): DNA-agent incubation for 24 h ((−)-iso-CBI-TMI) at 25° C., removal of unbound agent and 30 min of thermolysis (100° C.), followed by denaturing 8% PAGE and autoradiography; lane 1, control DNA; lanes 2-5, Sanger G, C, A, and T sequencing reactions; lanes 6-8 (−)-iso-CBI-TMI ([…] to 1×10^−5 M); lanes 9-10, (+)-duocarmycin SA (1×10^−5 to 1×10^−6 M); lanes 11-12, (+)-iso-CBI-TMI (1×10^−2 and 1×10^−3).
DNA Alkylation Selectivity and Efficiency: The DNA alkylation properties of the agents were examined within w794 and w836 duplex DNA for which comparative results are available for related agents. (Boger, D. L., et al., J. Am. Chem. Soc. 1994, 116, 11335; Boger, D. L., et al., J. Am. Chem. Soc. 1994, 116, 6461; and Boger, D. L., et al., J. Am. Chem. Soc. 1995, 117, 11647) The alkylation site identification and the assessment of the relative selectivity among the available sites were obtained by thermally-induced strand cleavage of the singly 5′ end-labeled duplex DNA after exposure to the agents. […]

[1] = test system: w794 DNA (SV40 DNA segment, 144 bp); settings: from earlier studies (refs 10, 11); cited from earlier work
[2] = Solvolysis reactivity (UV, 50% CH3OH-aqueous buffer, pH 3); type: physicochemical
Protocol: The solvolysis was followed spectrophotometrically by UV with the disappearance of the long-wavelength absorption band of the iso-CBI chromophore (397 nm), FIG. 3.
Solvolysis Reactivity: N-BOC-iso-CBI (31, 0.2 mg) was dissolved in CH3OH (1.5 mL) and mixed with pH 3 aqueous buffer (1.5 mL). The buffer contained 4:1:20 (v/v/v) 0.1 M citric acid, 0.2 M Na2HPO4, and H2O, respectively. The solvolysis solution was sealed and kept at 25° C. protected from light. The UV spectrum was measured at regular intervals every 1 h during the first 24 h, every 4 during the next 72 h, and every 12 h for an additional week. The decrease in the long wavelength absorption at 397 nm was monitored, FIG. 3. […] (FIG. 9).
Similarly, N—CO2Me-iso-CBI (33, 0.2 mg) was dissolved in CH3OH (1.5 mL) and mixed with pH 3 aqueous buffer (1.5 mL). The solvolysis solution was sealed and kept at 25° C. protected from light. The UV spectrum was measured at regular intervals every 1 h during the first 24 h, every 4 h during the next 72 h, and every 12 h for an additional week. The decrease in the long wavelength absorption at 395 nm was monitored, FIG. 3.
Similarly, 35 (0.2 mg) was dissolved in CH3OH (1.5 mL) and mixed with pH 3 aqueous buffer (1.5 mL). The solvolysis solution was sealed and kept at 25° C. protected from light. The UV spectrum was measured at regular intervals every 1 h during the first 12 h, every 2 h for the next 24 h, and every 4 h for an additional day. The decrease in the short wavelength absorption at 239 nm was monitored, FIG. 9.

L1210 = experiment: In vitro cytotoxic activity; type: cell-based
[3] = Stability of neat sample to ambient light and storage; type: physicochemical; settings: 48 h
Protocol: Exclusive spirocyclization with cyclopropane formation was observed, and no competitive O-alkylation leading to 36 was detected. However, prolonged exposure of neat 31 to ambient light at 25° C. […] Thus, the handling and storage of the iso-CBI based agents were conducted minimizing their exposure to light typically at subzero temperatures.

With `COc1cc2cc(C(=O)N3CC4CC45C(=O)c4ccccc4C=C35)[nH]c2c(OC)c1OC` (single isomer, unassigned; (+)) [(+)-iso-CBI-TMI, 2-[(5,6,7-Trimethoxyindol-2-yl)carbonyl]-1,2,9,9a-tetrahydrocyclopropa[c]benzo[f]indol-8-one] the “DNA alkylation sites / selectivity” value (w836 DNA (146 bp)) was “selectivity identical to that of ent-(-duocarmycin SA”.
For `COC(=O)[C@]1(C)NC2=C(C1=O)[C@@]13C[C@@H]1CN(C(=O)c1cc4cc(OC)c(OC)c(OC)c4[nH]1)C3=CC2=O` [duocarmycin A], the “DNA alkylation efficiency, less efficient than duocarmycin SA” value [1] is listed as “ca. 10 ×”.
For `CC(C)(C)OC(=O)N1CC2CC23C(=O)c2ccccc2C=C13` (racemic) [compound 31, 2-(tert-Butyloxycarbonyl)-1,2,9,9a-tetrahydrocyclopropa[c]benzo[f]indol-8-one], the “solvolysis reactivity relative to N-BOC-CBI / corresponding CBI-based agents (more reactive, less stable)” value ([2]; pH 3) was 5 ×, the “k, solvolysis rate constant” value ([2]; pH 3, 25° C., CH3OH/aqueous buffer) was 6.98e-06 s⁻¹ and 6.97e-06 s⁻¹ and the “cytotoxic potency of unnatural enantiomer relative to natural enantiomer (slightly more potent)” value (L1210) was 1-2 ×. For the same molecule, the “stability of neat sample exposed to ambient light” value ([3]; ambient light, 25° C.) was “carbonylcyclopropane rearrangement to form 36” and the “stability of neat sample protected from light” value ([3]; protected from light by foil) was “remained unchanged”.

From US6486326B2, “iso-CBI and iso-CI analogs of CC-1065 duocarmycins” (The Scripps Research Institute, priority 1997, dated 2002)
